# In patent US9115122B2, “Non-ATP dependent inhibitors of extracellular signal-regulated kinase (ERK)” (UNIVERSITY OF MARYLAND, BALTIMORE, priority 2012, dated 2015):
# Like-named read-outs stand apart in the source and are kept apart here.
# Key:
# Assay type in all cases: cell-based
# A375 melanoma cells [1] = experiment: Dose-response growth inhibition (GI50) of select compounds; details: two days
# Procedure: (§1) An example of the dose response curve for compound 30h and the BRaf inhibitor PLX4032 for inhibiting the growth of melanoma cell lines is shown in FIG. 14. […] A summary of GI50 values for select compounds along with comparisons to know ERK pathway inhibitors in various cell lines is shown in Table 13. […] First, thiazolidinedione compounds have been identified to be selective inhibitors of cancer cell lines containing activated ERK signaling. Second, changes in the 4-ethoxyphenyl component of the parent compound 76 improve selectivity and potency for inhibiting melanoma cell growth. Third, compound 30h is a potent inhibitor of melanoma cell lines that have become resistant to the clinically relevant BRaf and MEK inhibitors. […] Lastly, 30h is as potent as the ATP-competitive pyrazolopyridazinamine ERK inhibitor (FR180204) in preventing melanoma cell proliferation and provides an alternative non-ATP-dependent approach to target cancer cells that are dependent on active ERK signaling.
# (§2) Melanoma cells (A375, SK-MEL-28, and RPMI7951) were seeded at a density of 5,000 per well in 96-well plate. After overnight incubation, cells were treated with varying doses of PLX4032 (A) or 31h (B) for two days. Cell viability was determined by the addition of Cell Titer-Blue Reagent (20 μL/well) followed by 2 hours of incubation at 37° C. after which fluorescence was recorded (555/585 nm). Cell viability was expressed as percentage of vehicle control and data represent the average of three individual experiments.
# RPMI7951 melanoma cells = experiment: as above; details: two days
# Procedure: as §1, §2
# SK-MEL-28 melanoma cells [2] = experiment: as above; details: two days
# Procedure: as §1, §2
# HeLa cells = experiment: as above
# Jurkat cells = experiment: as above
# A375 melanoma cells [3] = experiment: Cell proliferation WST-1 assay, single dose (Example 4); details: 100 μM, 48 hours
# Procedure, shortened: (§3)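 Tetrazolium (WST-1) read-out of proliferation, values relative to DMSO-only wells; cells treated for 48 h after 16-20 h recovery.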
# HL-60 leukemic cells = experiment: as above; details: 100 μM, 48 hours
# Procedure, shortened: as §3
# [4] = test system: HeLa cervical carcinoma cells; experiment: as above; details: 100 μM, 48 hours
# Procedure, shortened: as §3
# [5] = test system: Jurkat T-cell leukemia cells; experiment: as above; details: 100 μM, 48 hours
# Procedure, shortened: as §3
# RPMI-7951 melanoma cells = experiment: as above; details: 100 μM, 48 hours
# Procedure, shortened: as §3
# SK-MEL-28 melanoma cells [6] = experiment: as above; details: 100 μM, 48 hours
# Procedure, shortened: as §3
SMILES,Cell Viability (% of Vehicle) A375 (A375 melanoma cells [3]),Cell Viability (% of Vehicle) HL-60 (HL-60 leukemic cells),Cell Viability (% of Vehicle) HeLa [4],Cell Viability (% of Vehicle) Jurkat [5],Cell Viability (% of Vehicle) RPMI-7951 (RPMI-7951 melanoma cells),Cell Viability (% of Vehicle) SK-MEL-28 (SK-MEL-28 melanoma cells [6]),also measured
"Nc1[nH]nc2nnc(-c3c(-c4ccccc4)nn4ccccc34)cc12 [FR180204, reference compound]",,,,,,,GI50 (A375 melanoma cells [1]): 5 µM; GI50 (RPMI7951 melanoma cells): 11 µM; GI50 (SK-MEL-28 melanoma cells [2]): 4 µM; GI50 (HeLa cells): > 10 µM; GI50 (Jurkat cells): > 10 µM
"Cn1cnc2c(F)c(Nc3ccc(Br)cc3Cl)c(C(=O)NOCCO)cc21 [AZD6244, reference compound]",,,,,,,"GI50 (A375 melanoma cells [1]; Homo sapiens, A-375, 48 h): 0.03 µM; GI50 (RPMI7951 melanoma cells; Homo sapiens, RPMI-7951, 48 h): 20 µM; GI50 (SK-MEL-28 melanoma cells [2]; Homo sapiens, SK-MEL-28, 48 h): 0.17 µM; GI50 (HeLa cells; Homo sapiens, HeLa): > 10 µM; GI50 (Jurkat cells; Homo sapiens, Jurkat): > 10 µM"
"CCCS(=O)(=O)Nc1ccc(F)c(C(=O)c2c[nH]c3ncc(-c4ccc(Cl)cc4)cc23)c1F [PLX4032, reference compound]",,,,,,,"GI50 (A375 melanoma cells [1]; Homo sapiens, A-375, 48 h): 0.07 µM; GI50 (RPMI7951 melanoma cells; Homo sapiens, RPMI-7951, 48 h): 11 µM; GI50 (SK-MEL-28 melanoma cells [2]; Homo sapiens, SK-MEL-28, 48 h): 0.38 µM; GI50 (HeLa cells; Homo sapiens, HeLa): > 10 µM; GI50 (Jurkat cells; Homo sapiens, Jurkat): > 10 µM"
"CCOc1ccc(/C=C2\SC(=O)N(Cc3ccc(C#N)cc3)C2=O)cc1 [Compound 28m, (Z)-4-((5-(4-ethoxybenzylidene)-2,4-dioxothiazolidin-3-yl)methyl)benzonitrile]",108 ± 3 % of Vehicle,86 ± 37 % of Vehicle,95 ± 3 % of Vehicle,103 ± 11 % of Vehicle,106 ± 8 % of Vehicle,97 ± 7 % of Vehicle,
"CCOc1ccc(/C=C2\SC(=O)N(CCNCC(C)C)C2=O)cc1 [Compound 23c, (Z)-5-(4-ethoxybenzylidene)-3-(2-(isobutylamino)ethyl)thiazolidine-2,4-dione]",1.0 ± 0.1 % of Vehicle,10 ± 4 % of Vehicle,3.7 ± 0.4 % of Vehicle,2.5 ± 0.1 % of Vehicle,1.0 ± 0.1 % of Vehicle,1.3 ± 0.1 % of Vehicle,
"CCOc1ccc(/C=C2\SC(=O)N(CCO)C2=O)cc1 [Compound 28e, (Z)-5-(4-ethoxybenzylidene)-3-(2-hydroxyethyl)thiazolidine-2,4-dione]",116 ± 4 % of Vehicle,91 ± 19 % of Vehicle,91 ± 2 % of Vehicle,101 ± 4 % of Vehicle,137 ± 8 % of Vehicle,91 ± 1 % of Vehicle,
"CCOc1ccc(/C=C2\SC(=O)N(CCNCc3ccccc3)C2=O)cc1 [Compound 23d, (Z)-3-(2-(benzylamino)ethyl)-5-(4-ethoxybenzylidene)thiazolidine-2,4-dione]",13 ± 1 % of Vehicle,5.0 ± 2 % of Vehicle,37 ± 1 % of Vehicle,89 ± 4 % of Vehicle,2.5 ± 0.3 % of Vehicle,25 ± 6 % of Vehicle,
